Experimental data reported in patent US12060349B2, “Glucosylceramide synthase inhibitors” (Genzyme Corporation, priority 2012, dated 2024).
Read-outs that look alike come from different tables or passages of the source.

Key:
[1] = target: T1, glucosylceramide synthase (Homo sapiens, UniProt Q16739); assay: microsomal assay measuring conversion of ceramide to glucosylceramide by HPLC (GCS IC50); type: biochemical; settings: concentration causing 50% inhibition of glucosylceramide synthase activity
T1 construct: Microsomes were isolated from A375 human melanoma cells; endogenous in cells; host or cells: A375 human melanoma cells (microsomal fraction, 100,000 g pellet)
T1 sequence (Q16739 1-394): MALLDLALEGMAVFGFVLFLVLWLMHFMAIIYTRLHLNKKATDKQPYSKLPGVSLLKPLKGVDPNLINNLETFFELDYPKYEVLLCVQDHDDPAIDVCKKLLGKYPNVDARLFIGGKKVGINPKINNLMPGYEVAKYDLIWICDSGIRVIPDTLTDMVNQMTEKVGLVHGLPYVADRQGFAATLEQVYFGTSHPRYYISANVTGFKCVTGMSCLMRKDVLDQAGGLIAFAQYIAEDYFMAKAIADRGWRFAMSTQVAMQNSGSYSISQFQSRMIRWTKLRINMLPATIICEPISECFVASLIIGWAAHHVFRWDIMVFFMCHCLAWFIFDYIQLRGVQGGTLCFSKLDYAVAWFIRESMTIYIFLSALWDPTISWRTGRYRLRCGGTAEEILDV
Protocol: Inhibition of glucosylceramide synthase activity for certain compounds of the invention were measured with 1) a microsomal assay that directly measures the conversion of ceramide to glucosylceramide by HPLC and 2) second, cell based, phenotypic assay that monitors cell surface expression of the downstream lipid GM3 by antibody mediated immunofluorescence. The cell based assay was performed in two different cell types, B16 and C32. Cell viability was also assessed in the second, cell-based assay.
The “Compound Number” in the table corresponds to the compound disclosed in the Example of the same number. The results of the microsomal assay are expressed as “GCS IC50”, which represents the concentration of the compound causing 50% inhibition of glucosylceramide synthase activity. The results of the cell based assays (performed in two different cell systems, i.e. B16 mouse melanoma or C32 human melanoma cells) are expressed as “GM3 B16 IC50” or “GM3 C32 IC50” for the B16 assay and the C32 assay, respectively. These values represent the concentration of the compound causing 50% inhibition of GM3 expression on the cell surface. The results of the viability assays are expressed as “Viability, B16 IC50” or “Viability, C32 IC50”, respectively. These values represent the concentration of the compound causing 50% cell death. Values greater than 10 represent a lack of cell death.

[2] = tested on: GM3 expression on the cell surface, B16 mouse melanoma cells; assay: cell based phenotypic assay, cell surface GM3 by antibody mediated immunofluorescence, B16 (GM3 B16 IC50); settings: B16 mouse melanoma cells, 50% inhibition of GM3 expression on the cell surface, read-out: GM3 B16 IC50
Protocol: (§1) The cell based assay was performed in two different cell types, B16 and C32. Cell viability was also assessed in the second, cell-based assay.
(§2) The “Compound Number” in the table corresponds to the compound disclosed in the Example of the same number. […] The results of the cell based assays (performed in two different cell systems, i.e. B16 mouse melanoma or C32 human melanoma cells) are expressed as “GM3 B16 IC50” or “GM3 C32 IC50” for the B16 assay and the C32 assay, respectively. […] The results of the viability assays are expressed as “Viability, B16 IC50” or “Viability, C32 IC50”, respectively. These values represent the concentration of the compound causing 50% cell death. Values greater than 10 represent a lack of cell death.

[3] = tested on: GM3 expression on the cell surface, C32 human melanoma cells; assay: cell based phenotypic assay, cell surface GM3 by antibody mediated immunofluorescence, C32 (GM3 C32 IC50); settings: C32 human melanoma cells, 50% inhibition of GM3 expression on the cell surface, read-out: GM3 C32 IC50
Protocol: as §1, §2

B16 mouse melanoma cells = assay: cell viability in the B16 cell-based assay (Viability, B16 IC50); settings: concentration causing 50% cell death, values greater than 10 represent a lack of cell death, read-out: Viability, B16 IC50
Protocol: as §1, §2

C32 human melanoma cells = assay: cell viability in the C32 cell-based assay (Viability, C32 IC50); settings: concentration causing 50% cell death, values greater than 10 represent a lack of cell death, read-out: Viability, C32 IC50
Protocol: as §1, §2

IC50 [1] [nM]	IC50 [2] [nM]	IC50 [3] [nM]	Structure (SMILES)	IC50 (B16 mouse melanoma cells; B16 cells) [nM]	IC50 (C32 human melanoma cells; C32 cells) [nM]	IC50 (B16 mouse melanoma cells; Mus musculus, B16, B16 cells) [nM]	IC50 (C32 human melanoma cells; Homo sapiens, C32, C32 cells) [nM]	IC50 ([2]; Mus musculus) [nM]	IC50 ([3]; Homo sapiens) [nM]
1.25	6.54	0.0655	CC1(NC(=O)C2CCN(c3nccc(-c4ccc(F)cc4)n3)CC2)CCN2CCC1CC2 (single isomer, unassigned) [Example 43, 1-(4-(4-Fluorophenyl)pyrimidin-2-yl)-N-(4-methyl-1-azabicyclo[3.2.2]nonan-4-yl)piperidine-4-carboxamide]	7140	8920	–	–	–	–
258	2190	50	CC1(NC(=O)C2CCN(c3cncc(-c4ccc(F)cc4)n3)CC2)CCN2CCC1CC2 (single isomer, unassigned) [Example 47, 1-(6-(4-Fluorophenyl)pyrazin-2-yl)-N-(4-methyl-1-azabicyclo[3.2.2]nonan-4-yl)piperidine-4-carboxamide]	–	3160	7830	–	–	–
1.61	47.7	0.096	CC1(NC(=O)C2CCN(c3cncc(-c4ccc(F)cc4)n3)CC2)CCN2CCC1CC2 (single isomer, unassigned) [Example 48, 1-(6-(4-Fluorophenyl)pyrazin-2-yl)-N-(4-methyl-1-azabicyclo[3.2.2]nonan-4-yl)piperidine-4-carboxamide]	7760	5.17	–	–	–	–
64.7	3120	4.87	COCCOCc1ccc(-c2nc(N3CCC(F)(C(=O)NC4(C)CCN5CCC4CC5)CC3)ncc2F)cc1 (single isomer, unassigned) [Example 78, 4-Fluoro-1-(5-fluoro-4-(4-((2-methoxyethoxy)methyl)phenyl)pyrimidin-2-yl)-N-(4-methyl-1-azabicyclo[3.2.2]nonan-4-yl)piperidine-4-carboxamide]	–	1000	3540	–	–	–
1.8	109	0.191	COCCOCc1ccc(-c2nc(N3CCC(F)(C(=O)NC4(C)CCN5CCC4CC5)CC3)ncc2F)cc1 (single isomer, unassigned) [Example 79, 4-Fluoro-1-(5-fluoro-4-(4-((2-methoxyethoxy)methyl)phenyl)pyrimidin-2-yl)-N-(4-methyl-1-azabicyclo[3.2.2]nonan-4-yl)piperidine-4-carboxamide]	4280	215	–	–	–	–
3.2	50.1	0.198	C[C@@H]1CN(C(=O)NC2(C)CCN3CCC2CC3)CCN1c1nccc(-c2ccccc2)n1 (single isomer, unassigned) [Example 137]	5720	1000	–	–	–	–
902	> 10000	63.6	C[C@@H]1CN(C(=O)NC2(C)CCN3CCC2CC3)CCN1c1nccc(-c2ccccc2)n1 (single isomer, unassigned) [Example 138]	–	3160	9310	–	–	–
17.3	67	1.37	C[C@H]1CN(C(=O)NC2(C)CCN3CCC2CC3)CCN1c1nccc(-c2ccccc2)n1 (single isomer, unassigned) [Example 139]	–	–	5250	3160	–	–
46.9	9080	574	C[C@H]1CN(C(=O)NC2(C)CCN3CCC2CC3)CCN1c1nccc(-c2ccccc2)n1 (single isomer, unassigned) [Example 140]	6490	3160	–	–	–	–
27.8	87.2	3.52	COCCOc1ccc(-c2ccc(C(C)(C)NC(=O)OC3CCN4CCC3CC4)nc2)cc1 (single isomer, unassigned) [Example 348, 1-Azabicyclo[3.2.2]nonan-4-yl 2-(5-(4-(2-methoxyethoxy)phenyl)pyridin-2-yl)propan-2-ylcarbamate]	–	–	≥ 10000	1000	–	–
250	233	14.4	COCCOc1ccc(-c2ccc(C(C)(C)NC(=O)OC3CCN4CCC3CC4)nc2)cc1 (single isomer, unassigned) [Example 349, 1-Azabicyclo[3.2.2]nonan-4-yl 2-(5-(4-(2-methoxyethoxy)phenyl)pyridin-2-yl)propan-2-ylcarbamate]	≥ 10000	1000	–	–	–	–
10900	–	–	O=C(NC1CCN2CCC1CC2)N1CCN(c2ccc(-c3ccccc3)cc2)CC1 (stereo not drawn) [Example 3, 4-([1,1′-Biphenyl]-4-yl)-N-(1-azabicyclo[3.2.2]nonan-4-yl)piperazine-1-carboxamide]	–	–	4180	2510	6840	1000
1000	–	–	CC1(NC(=O)N2CCN(c3ccc(-c4ccccc4)cc3)CC2)CCN2CCC1CC2 (stereo not drawn) [Example 4, 4-([1,1′-Biphenyl]-4-yl)-N-(4-methyl-1-azabicyclo[3.2.2]nonan-4-yl)piperazine-1-carboxamide]	–	–	6160	6310	1380	62.5

Structure (SMILES)	IC50 [1] [nM]	IC50 [2] [nM]	IC50 [3] [nM]	IC50 (B16 mouse melanoma cells; B16 cells) [nM]	IC50 (C32 human melanoma cells; C32 cells) [nM]	IC50 (B16 mouse melanoma cells; Mus musculus, B16, B16 cells) [nM]	IC50 (C32 human melanoma cells; Homo sapiens, C32, C32 cells) [nM]	IC50 ([2]; Mus musculus) [nM]	IC50 ([3]; Homo sapiens) [nM]
CCC1(NC(=O)NC2(c3ccc(-c4ccc(COCCOC)cc4)cc3)CC2)CN2CCC1CC2 (single isomer, unassigned) [Example 208, 1-(3-Ethylquinuclidin-3-yl)-3-(1-(4′-((2-methoxyethoxy)methyl)-[1,1′-biphenyl]-4-yl)cyclopropyl)urea]	2710	988	73.9	–	≥ 10000	≥ 10000	–	–	–
CCC1(NC(=O)NC2(c3ccc(-c4ccc(COCCOC)cc4)cc3)CC2)CN2CCC1CC2 (single isomer, unassigned) [Example 209, 1-(3-Ethylquinuclidin-3-yl)-3-(1-(4′-((2-methoxyethoxy)methyl)-[1,1′-biphenyl]-4-yl)cyclopropyl)urea]	17.4	39.2	1.05	≥ 10000	1780	–	–	–	–
CC1(NC(=O)N2CCN(c3ccc(-c4ccccc4)cc3)CC2)CN2CCC1CC2 (stereo not drawn) [Example 1, 4-([1,1′-Biphenyl]-4-yl)-N-(3-methylquinuclidin-3-yl)piperazine-1-carboxamide]	719	–	–	–	–	7160	≥ 10000	1260	109
O=C(NC1CN2CCC1CC2)N1CCN(c2ccc(-c3ccccc3)cc2)CC1 (stereo not drawn) [Example 2, 4-([1,1′-Biphenyl]-4-yl)-N-(quinuclidin-3-yl)piperazine-1-carboxamide]	6930	–	–	–	–	5280	7580	1600	667
O=C(N1CCN(c2ccc(-c3ccccc3)cc2)CC1)N1CCN2CCC1CC2 [Example 5, (4-([1,1′-Biphenyl]-4-yl)piperazin-1-yl)(1,4-diazabicyclo[3.2.2]nonan-4-yl)methanone]	30000	–	–	–	–	2000	2000	2000	2000
